Series [1] addresses T1, Shc PTB domain (GST-ShcB) binding to activated EGF-R (Homo sapiens, UniProt P29353).
T1 construct: made in house
T1 sequence (P29353 156-339 limits assumed): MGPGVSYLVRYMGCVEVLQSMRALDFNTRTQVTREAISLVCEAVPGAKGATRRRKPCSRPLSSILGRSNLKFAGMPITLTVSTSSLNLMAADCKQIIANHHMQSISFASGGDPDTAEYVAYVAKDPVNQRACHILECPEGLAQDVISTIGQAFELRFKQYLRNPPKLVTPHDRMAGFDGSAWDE
Nature of the series: In vitro binding assay: competitive inhibition of EGF receptor binding to GST-ShcB in HER14 lysates. Particulars: FIG. 10 Panel A; for inhibition of association of Shc and EGF-R: dose response, cyclic peptides, 5 μM. On the procedure: HER14 cells (3T3 cells expressing EGF-R) were starved in 0.5% CS media for 24 hours and stimulated with 100 ng/ml EGF for 5 min. Cells were lysed and mixed with GST, GST-ShcB or GST-R175M beads. Proteins which bound to beads were resolved on SDS-PAGE and detected by anti-phospho-Tyr antibody (4G10) or by anti-EGF-R.
The peptides listed in Table 2 were added to cell lysates at 5 μM, incubated for 30 min., and treated with GST-ShcB beads. Proteins bound to GST-ShcB were detected by anti-phospho-Tyr antibody. […] The experiment was repeated with the peptides dissolved in DMSO (FIG. 9).

Another series concerns the target T2, Shc PTB domain (Homo sapiens, UniProt P29353).
T2 construct: containing 1 μM GST-Shc PTB domain fusion protein; made in house
T2 sequence (P29353 156-339 limits assumed): T1 sequence (P29353 156-339 limits assumed)
Nature of the series: Surface plasmon resonance competition of GST-Shc PTB domain binding to immobilized polyoma middle T antigen phosphopeptide. On the procedure:
Surface plasmon resonance analysis was carried out using a Biacore apparatus (Pharmacia Biosensor) as described previously (Puil et al., 1994). The peptide L-S-L-L-S-N-P-T-p.Y-S-V-M-R-S-K (SEQ ID NO:23) was immobilized to a biosensor chip through injection of a 0.5 mM solution of the phosphopeptide, in 50 mM HEPES, pH 7.5 and 2 M NaCl, across the chip surface previously activated following procedures outlined by the manufacturer. Injection of anti-phosphotyrosine antibody was used to confirm that successful immobilization of the peptide was achieved. Solutions (100 μl) containing 1 μM GST-Shc PTB domain fusion protein and the indicated concentrations of soluble phosphopeptide in 50 mM Na phosphate, pH 7.5, 150 mM NaCl, 0.1 mM EDTA, and 2 mM DTT, were injected across the surface. The amount of bound GST-Shc PTB domain was estimated from the surface plasmon resonance signal at a fixed time following the end of the injection and the percentage bound, relative to injection of GST-Shc PTB domain alone, calculated. The surface was regenerated using 2 M Guanidinium-HCl.
A general note: In SPR one partner is held on a chip, and binding of the other changes the refractive index at the surface.

The subject of another series is cells. Nature of the series: Peptide localization in cells (anti-phospho-Tyr immunofluorescence). Type of series: cell-based. On the procedure: To examine peptide localization, cells were treated with P-1 or P-2 peptide for 4 hours, stained with anti-phospho-Tyr and rhodamine-conjugated antibody, and observed with a confocal microscope. A Z-scan was carried out to make images in each 0.15 μm section from the top of the cells to the bottom. […] Cells treated with P-1 peptide were not stained by anti-phospho-Tyr antibody, confirming the specifity of the immunofluoroscence staining. In a time course analysis, cells were serum-starved for 24 hours, and incubated with peptide (5 μM) for various time periods. Cells were stained by anti-phosphoro-Tyr antibody and analyzed under an immunofluoroscence microscope. Cells treated with P-2 peptide retained phospho-peptide for up to 24 hrs. In a dose response experiment, cells were starved in serum-free medium for 24 hours, cultured with peptide at various concentrations, and stained with anti-phospho-tyrosine antibody (4G10) to detect the peptide containing phospho-tyrosine residue (red) and by Hoechst 33258 for nuclei (blue). P-2 peptide was detected at 0.5 μM and 1 μM in cells .

The mark [2] stands for this setting: peptide concentration inhibiting by 50% binding of 1 μM GST-Shc PTB domain to immobilized polyoma middle T antigen phosphopeptide, read-out: IC 50.

Molecules are shown by their SMILES. pIC50: −log10 of the molar value. Like-named read-outs stand apart in the source and are kept apart here. Square brackets hold non-standard residues; d marks the D form. Peptide text beside a SMILES is read from it. pY = N[C@@H](Cc1ccc(OP(=O)(O)O)cc1)C(=O)O

In general, inhibition refers to the relative decrease from the control value, in per cent. In the case of `CC[C@H](C)[C@@H]1NC(=O)CNC(=O)[C@@H]2CCCN2C(=O)[C@H](CO)NC(=O)[C@H](Cc2ccccc2)NC(=O)[C@H](Cc2ccc(OP(=O)(O)O)cc2)NC(=O)[C@H](CCC(N)=O)NC(=O)[C@@H]2CCCN2C(=O)[C@H](CC(N)=O)NC(=O)[C@H](CCC(=O)O)NC1=O` [C-1, Cyclo-(IENPQpYFSPG)] (cyclo(ENPQ[pY]FSPGI)), the inhibition at 100 µM in series [1] (100 μM, read-out: inhibition of association of Shc and EGF-R) is around 50%. Regarding `NC(=O)CC[C@@H]1NC(=O)[C@@H]2CCCN2C(=O)[C@H](CC(N)=O)NC(=O)[C@H](Cc2ccc(OP(=O)(O)O)cc2)NC1=O` [C-3, Cyclo-(NPQpY)] (cyclo(NPQ[pY])), the “inhibition of association of Shc and EGF-R” value in series [1] was “did not inhibit”. Same read-out and setting: for `NC(=O)CC[C@@H]1NC(=O)[C@@H]2CCCN2C(=O)[C@H](CC(N)=O)NC(=O)CNC(=O)[C@H](Cc2ccc(OP(=O)(O)O)cc2)NC1=O` [C-4, Cyclo-(NPQpYG)] (cyclo(GNPQ[pY])) the value was “did not inhibit”.

With `NC(=O)CC[C@@H]1NC(=O)[C@@H]2CCCN2C(=O)[C@H](CC(N)=O)NC(=O)CNC(=O)CNC(=O)[C@H](Cc2ccc(OP(=O)(O)O)cc2)NC1=O` [C-5, Cyclo-(NPQpYGG)] (cyclo(GGNPQ[pY])), the “inhibition of association of Shc and EGF-R” value in series [1] is “did not inhibit”. The compound `C[C@H](NC(=O)[C@H](C)NC(=O)[C@@H](N)Cc1c[nH]cn1)C(=O)N[C@@H](CCC(=O)O)C(=O)N[C@@H](CC(N)=O)C(=O)N1CCC[C@H]1C(=O)N[C@@H](CCC(N)=O)C(=O)N[C@@H](Cc1ccc(OP(=O)(O)O)cc1)C(=O)N[C@@H](Cc1ccccc1)C(=O)N[C@@H](CO)C(=O)N[C@@H](CC(=O)O)C(=O)O` [H-A-A-E-N-P-Q-P.Y-F-S-D, H-A-A-E-N-P-Q-p.Y-F-S-D] (H-HAAENPQ[pY]FSD-OH) gave a pIC50 at Shc PTB domain of 6.32. In turn, `CC[C@H](C)[C@H](NC(=O)[C@H](C)NC(=O)[C@@H](N)Cc1c[nH]cn1)C(=O)N[C@@H](CCC(=O)O)C(=O)N[C@@H](CC(N)=O)C(=O)N1CCC[C@H]1C(=O)N[C@@H](CCC(N)=O)C(=O)N[C@@H](Cc1ccc(OP(=O)(O)O)cc1)C(=O)N[C@@H](Cc1ccccc1)C(=O)N[C@@H](CO)C(=O)N[C@@H](CC(=O)O)C(=O)O` [H-A-I-E-N-P-Q-P.Y-F-S-D, His-Ala-Ile-Glu-Asn-Pro-Gln-P.Tyr-Phe-Ser-Asp] (H-HAIENPQ[pY]FSD-OH) gave a pIC50 at Shc PTB domain of 7.70. Regarding `C[C@H](NC(=O)[C@@H](N)Cc1c[nH]cn1)C(=O)N[C@@H](CO)C(=O)N[C@@H](CCC(=O)O)C(=O)N[C@@H](CC(N)=O)C(=O)N1CCC[C@H]1C(=O)N[C@@H](CCC(N)=O)C(=O)N[C@@H](Cc1ccc(OP(=O)(O)O)cc1)C(=O)N[C@@H](Cc1ccccc1)C(=O)N[C@@H](CO)C(=O)N[C@@H](CC(=O)O)C(=O)O` [H-A-S-E-N-P-Q-P.Y-F-S-D, H-A-S-E-N-P-Q-p.Y-F-S-D] (H-HASENPQ[pY]FSD-OH), the pIC50 on Shc PTB domain (setting [2]) was 4.82. In turn, `CC[C@H](C)[C@H](NC(=O)[C@@H](N)Cc1c[nH]cn1)C(=O)N[C@@H](C)C(=O)N[C@@H](CCC(=O)O)C(=O)N[C@@H](CC(N)=O)C(=O)N1CCC[C@H]1C(=O)N[C@@H](CCC(N)=O)C(=O)N[C@@H](Cc1ccc(OP(=O)(O)O)cc1)C(=O)N[C@@H](Cc1ccccc1)C(=O)N[C@@H](CO)C(=O)N[C@@H](CC(=O)O)C(=O)O` [H-I-A-E-N-P-Q-P.Y-F-S-D, His-Ile-Ala-Glu-Asn-Pro-Gln-P.Tyr-Phe-Ser-Asp] (H-HIAENPQ[pY]FSD-OH) had a pIC50 on Shc PTB domain of 6.60. Turning to `CC[C@H](C)[C@H](NC(=O)[C@@H](NC(=O)[C@@H](N)Cc1c[nH]cn1)[C@@H](C)CC)C(=O)N[C@@H](CCC(=O)O)C(=O)N[C@@H](C)C(=O)N1CCC[C@H]1C(=O)N[C@@H](CCC(N)=O)C(=O)N[C@@H](Cc1ccc(OP(=O)(O)O)cc1)C(=O)N[C@@H](Cc1ccccc1)C(=O)N[C@@H](CO)C(=O)N[C@@H](CC(=O)O)C(=O)O` [H-I-I-E-A-P-Q-P.Y-F-S-D, His-Ile-Ile-Glu-Ala-Pro-Gln-P.Tyr-Phe-Ser-Asp] (H-HIIEAPQ[pY]FSD-OH), the pIC50 on Shc PTB domain (setting [2]) was 4.10.

With `CC[C@H](C)[C@H](NC(=O)[C@@H](NC(=O)[C@@H](N)Cc1c[nH]cn1)[C@@H](C)CC)C(=O)N[C@@H](CCC(=O)O)C(=O)N[C@@H](CC(N)=O)C(=O)N[C@@H](C)C(=O)N[C@@H](CCC(N)=O)C(=O)N[C@@H](Cc1ccc(OP(=O)(O)O)cc1)C(=O)N[C@@H](Cc1ccccc1)C(=O)N[C@@H](CO)C(=O)N[C@@H](CC(=O)O)C(=O)O` [H-I-I-E-N-A-Q-P.Y-F-S-D, His-Ile-Ile-Glu-Asn-Ala-Gln-P.Tyr-Phe-Ser-Asp] (H-HIIENAQ[pY]FSD-OH), the pIC50 at Shc PTB domain (setting [2]) was 5.60.

Regarding `CC[C@H](C)[C@H](NC(=O)[C@@H](NC(=O)[C@@H](N)Cc1c[nH]cn1)[C@@H](C)CC)C(=O)N[C@@H](CCC(=O)O)C(=O)N[C@@H](CC(N)=O)C(=O)N1CCC[C@H]1C(=O)N[C@@H](CCC(N)=O)C(=O)N[C@@H](Cc1ccc(OP(=O)(O)O)cc1)C(=O)N[C@@H](Cc1ccccc1)C(=O)N[C@@H](CO)C(=O)N[C@@H](CC(=O)O)C(=O)O` [H-I-I-E-N-P-Q-P.Y-F-S-D, His-Ile-Ile-Glu-Asn-Pro-Gln-P.Tyr-Phe-Ser-Asp] (H-HIIENPQ[pY]FSD-OH), the pIC50 at Shc PTB domain is 6.76.

Turning to `CC[C@H](C)[C@H](N)C(=O)N[C@@H](CCC(=O)O)C(=O)N[C@@H](CC(N)=O)C(=O)N1CCC[C@H]1C(=O)N[C@@H](CCC(N)=O)C(=O)N[C@@H](Cc1ccc(OP(=O)(O)O)cc1)C(=O)N[C@@H](Cc1ccccc1)C(=O)N[C@@H](CO)C(=O)N[C@@H](CC(=O)O)C(=O)O` [IENPQpYFSD] (H-IENPQ[pY]FSD-OH), the pIC50 at Shc PTB domain is 5.40.

On to `CC[C@H](C)[C@H](NC(=O)[C@H](CCCCN)NC(=O)[C@@H](NC(=O)[C@H](CCC(N)=O)NC(=O)[C@@H](N)CCCNC(=N)N)[C@@H](C)CC)C(=O)N[C@@H](Cc1c[nH]c2ccccc12)C(=O)N[C@@H](Cc1ccccc1)C(=O)N[C@@H](CCC(N)=O)C(=O)N[C@@H](CC(N)=O)C(=O)N[C@@H](CCCNC(=N)N)C(=O)N[C@@H](CCCNC(=N)N)C(=O)N[C@@H](CCSC)C(=O)N[C@@H](CCCCN)C(=O)N[C@@H](Cc1c[nH]c2ccccc12)C(=O)N[C@@H](CCCCN)C(=O)N[C@@H](CCCCN)C(=O)N[C@@H](Cc1c[nH]cn1)C(=O)N[C@H](C(=O)N[C@H](C(=O)N[C@@H](CCC(=O)O)C(=O)N[C@@H](CC(N)=O)C(=O)N1CCC[C@H]1C(=O)N[C@@H](CCC(N)=O)C(=O)N[C@@H](Cc1ccc(OP(=O)(O)O)cc1)C(=O)N[C@@H](Cc1ccccc1)C(=O)N[C@@H](CO)C(=O)N[C@@H](CC(=O)O)C(=O)O)[C@@H](C)CC)[C@@H](C)CC` [P-2, RQIKIWFQNRRMKWKK-HIIENPQpYFSD] (H-RQIKIWFQNRRMKWKKHIIENPQ[pY]FSD-OH), for which the “peptide localization in cells” value in the series on cells (cells treated 4 hours, anti-phospho-Tyr staining, confocal microscope) was “localized in the cytoplasm of cells, and not in the nucleus”. For the same compound, the “detection of peptide in cells by anti-phospho-tyrosine staining” value with cells (dose response, 0.5 μM and 1 μM (concentrations up to 1 μM)) was “detected”. Besides, the “retention of phospho-peptide in cells” value in the series with cells (time course, peptide 5 μM, serum-starved cells) is listed as “up to 24 hrs”.

With `CC[C@H](C)[C@H](NC(=O)[C@H](C)NC(=O)[C@@H](N)Cc1ccc(O)cc1)C(=O)N[C@@H](CO)C(=O)N[C@@H](CC(N)=O)C(=O)N1CCC[C@H]1C(=O)N[C@@H](CCC(=O)O)C(=O)N[C@@H](Cc1ccc(OP(=O)(O)O)cc1)C(=O)N[C@@H](CC(C)C)C(=O)N[C@@H](CO)C(=O)N[C@@H](C)C(=O)O` [Y-A-I-S-N-P-E-P.Y-L-S-A, Tyr-Ala-Ile-Ser-Asn-Pro-Glu-P.Tyr-Leu-Ser-Ala] (H-YAISNPE[pY]LSA-OH), the pIC50 at Shc PTB domain (setting [2]) was 7.05. As for `CC(C)C[C@H](NC(=O)[C@H](Cc1ccc(OP(=O)(O)O)cc1)NC(=O)[C@H](CCC(=O)O)NC(=O)[C@@H]1CCCN1C(=O)[C@H](CC(N)=O)NC(=O)[C@H](CO)NC(=O)[C@H](CO)NC(=O)[C@H](C)NC(=O)[C@@H](N)Cc1ccc(O)cc1)C(=O)N[C@@H](CO)C(=O)N[C@@H](C)C(=O)O` [Y-A-S-S-N-P-E-P.Y-L-S-A, Y-A-S-S-N-P-E-p.Y-L-S-A] (H-YASSNPE[pY]LSA-OH), the pIC50 at Shc PTB domain (setting [2]) is 5.15.

(Values after patent US6028053A, “Peptide inhibitors of a phosphotyrosine-binding domain containing protein” (Mount Sinai Hospital Corporation, priority 1998, dated 2000).)
